Experimental data as given in paper PMC4340402 (The Journal of Biological Chemistry, 2014).
Numbering of substitutions follows the chain as printed.

Assays:
Test in all cases: two-electrode voltage clamp, Xenopus oocytes
X1-CϵX4 = system: T1, X1-CϵX4; format: cell-based, Homo sapiens; Rattus norvegicus; settings: agonist; 3 s application; ND96 with Ba2+, -60 mV
T1 construct: gene P2RX1; hP2X1 with residues 221-226 replaced by the corresponding rP2X4 segment; Xenopus oocytes
Text: two-electrode voltage clamp, Xenopus oocytes on X1-CϵX4

X1-CζX4 = system: T2, X1-CζX4; format: cell-based, Homo sapiens; Rattus norvegicus; settings: agonist; 3 s application; ND96 with Ba2+, -60 mV
T2 construct: gene P2RX1; hP2X1 with residues 227-231 replaced by the corresponding rP2X4 segment; Xenopus oocytes
Text: two-electrode voltage clamp, Xenopus oocytes on X1-CζX4

X1-CβX4 = system: T3, X1-CβX4; format: cell-based, Homo sapiens; Rattus norvegicus; settings: agonist; 3 s application; ND96 with Ba2+, -60 mV
T3 construct: gene P2RX1; hP2X1 with residues 232-261 replaced by the corresponding rP2X4 segment; Xenopus oocytes
Text: two-electrode voltage clamp, Xenopus oocytes on X1-CβX4

X1-CX4 = system: T4, X1-CX4; format: cell-based, Homo sapiens; Rattus norvegicus; settings: ND96 with Ba2+, -60 mV
T4 construct: gene P2RX1; hP2X1 with residues 185-261 (hP2X1 numbering) replaced by the corresponding rP2X4 segment; Xenopus oocytes
Text: two-electrode voltage clamp, Xenopus oocytes on X1-CX4

X1-BX4 [1] = system: T5, X1-BX4; format: cell-based, Homo sapiens; Rattus norvegicus; settings: ND96 with Ba2+, -60 mV
T5 construct: gene P2RX1; hP2X1 with residues 133-184 (hP2X1 numbering) replaced by the corresponding rP2X4 segment; Xenopus oocytes
Text: two-electrode voltage clamp, Xenopus oocytes on X1-BX4

rP2X4 receptor [2] = target: T6, rP2X4 receptor (Rattus norvegicus, UniProt P51577, Y378A); format: cell-based
T6 construct: gene P2rx4; homotrimer; cRNA expressed in Xenopus laevis oocytes
T6 sequence (P51577 1-388 Y378A): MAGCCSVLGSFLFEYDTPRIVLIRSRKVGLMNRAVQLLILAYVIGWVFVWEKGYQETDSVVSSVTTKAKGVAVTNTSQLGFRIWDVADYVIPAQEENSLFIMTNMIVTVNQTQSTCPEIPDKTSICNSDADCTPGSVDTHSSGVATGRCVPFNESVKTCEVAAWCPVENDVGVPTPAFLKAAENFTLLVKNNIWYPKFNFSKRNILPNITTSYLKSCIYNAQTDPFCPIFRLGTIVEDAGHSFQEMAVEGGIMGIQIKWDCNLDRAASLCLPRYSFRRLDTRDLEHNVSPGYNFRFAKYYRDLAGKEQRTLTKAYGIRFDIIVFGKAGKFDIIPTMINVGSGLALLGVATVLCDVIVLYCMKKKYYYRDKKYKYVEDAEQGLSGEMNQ
Text: two-electrode voltage clamp, Xenopus oocytes on rP2X4 receptor

X1-BX4 [3] = system: T5, X1-BX4; format: cell-based, Homo sapiens; Rattus norvegicus; settings: agonist; 3 s application; ND96 with Ba2+, -60 mV
hP2X1 receptor = target: T7, hP2X1 receptor (Homo sapiens, UniProt P51575); format: cell-based
T7 construct: gene P2RX1; full-length cDNA cloned from bladder; homotrimer; cRNA expressed in Xenopus laevis oocytes
T7 sequence (P51575 1-399): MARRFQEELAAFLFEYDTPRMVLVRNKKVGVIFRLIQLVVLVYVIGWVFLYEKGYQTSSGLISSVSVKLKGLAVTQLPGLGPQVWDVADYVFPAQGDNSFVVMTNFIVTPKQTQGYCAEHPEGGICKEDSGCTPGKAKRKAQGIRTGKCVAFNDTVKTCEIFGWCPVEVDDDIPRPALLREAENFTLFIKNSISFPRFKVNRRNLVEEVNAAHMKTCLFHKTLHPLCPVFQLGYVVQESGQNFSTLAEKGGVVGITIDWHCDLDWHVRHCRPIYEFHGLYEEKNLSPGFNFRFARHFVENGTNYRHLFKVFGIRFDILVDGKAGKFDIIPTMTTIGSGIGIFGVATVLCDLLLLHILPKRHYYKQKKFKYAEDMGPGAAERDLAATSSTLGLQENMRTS
Text: two-electrode voltage clamp, Xenopus oocytes on hP2X1 receptor

X1-CαX4 = system: T8, X1-CαX4; format: cell-based, Homo sapiens; Rattus norvegicus; settings: agonist; 3 s application; ND96 with Ba2+, -60 mV
T8 construct: gene P2RX1; text says 184-209) replaced by the corresponding rP2X4 segment; Xenopus oocytes
Text: two-electrode voltage clamp, Xenopus oocytes on X1-CαX4

X1-CδX4 = system: T9, X1-CδX4; format: cell-based, Homo sapiens; Rattus norvegicus; settings: agonist; 3 s application; ND96 with Ba2+, -60 mV
T9 construct: gene P2RX1; hP2X1 with residues 216-220 replaced by the corresponding rP2X4 segment; Xenopus oocytes
Text: two-electrode voltage clamp, Xenopus oocytes on X1-CδX4

X1-AX4 = system: T10, X1-AX4; format: cell-based, Homo sapiens; Rattus norvegicus; settings: ND96 with Ba2+, -60 mV
T10 construct: gene P2RX1; hP2X1 with residues 63-132 replaced by the corresponding rP2X4 segment (63-133); Xenopus oocytes
Text: two-electrode voltage clamp, Xenopus oocytes on X1-AX4

X1-CγX4 = system: T11, X1-CγX4; format: cell-based, Homo sapiens; Rattus norvegicus; settings: agonist; 3 s application; ND96 with Ba2+, -60 mV
T11 construct: gene P2RX1; hP2X1 with residues 210-215 replaced by the corresponding rP2X4 segment; Xenopus oocytes
Text: two-electrode voltage clamp, Xenopus oocytes on X1-CγX4

X1-DX4 = system: T12, X1-DX4; format: cell-based, Homo sapiens; Rattus norvegicus; settings: ND96 with Ba2+, -60 mV
T12 construct: gene P2RX1; hP2X1 with residues 262-330 (hP2X1 numbering) replaced by the corresponding rP2X4 segment; Xenopus oocytes
Text: two-electrode voltage clamp, Xenopus oocytes on X1-DX4

X1-BX4 [4] = system: T5, X1-BX4; format: cell-based, Homo sapiens; Rattus norvegicus; settings: antagonist at EC90 of ATP; 5 min preincubation; ND96 with Ba2+, -60 mV
rP2X4 receptor [5] = target: T13, rP2X4 receptor (Rattus norvegicus, UniProt P51577, D138K/H140K/S136K/T139R/Y378A); format: cell-based; settings: read-out: % of control at 1 μM
T13 construct: gene P2rx4; homotrimer; cRNA expressed in Xenopus laevis oocytes
T13 sequence (P51577 1-388 S136K/D138K/T139R/H140K/Y378A): T6 sequence (P51577 1-388 Y378A) with S136K, D138K, T139R, H140K

[6] = read-out: ATP / pEC50 (converted)
[7] = antagonist at EC90 of ATP, 5 min preincubation

## Nc1ncnc2c1ncn2[C@@H]1O[C@H](COP(=O)(O)OP(=O)(O)OP(=O)(O)O)[C@@H](O)[C@H]1O [ATP]
X1-CϵX4
  ATP / pEC50: 5.68 ± 0.06
X1-CζX4
  ATP / pEC50: 5.54 ± 0.06
X1-CβX4
  ATP / pEC50: 5.30 ± 0.06
X1-CX4; agonist, 3 s application
  ATP / pEC50: 6.17 ± 0.13
X1-BX4 [1]; agonist, 3 s application
  ATP / pEC50: 4.28 ± 0.04
rP2X4 receptor [2]; [6]
  EC50: 4070 nM
X1-BX4 [3]
  pEC50: 3.6 ± 0.1
hP2X1 receptor; [6]
  EC50: 490 nM
X1-CαX4
  ATP / pEC50: 5.34 ± 0.05
X1-CδX4
  ATP / pEC50: 5.21 ± 0.04
X1-AX4; agonist, 3 s application
  ATP / pEC50: 4.43 ± 0.08
X1-CγX4
  ATP / pEC50: 5.71 ± 0.06
X1-DX4; agonist, 3 s application
  ATP / pEC50: 5.08 ± 0.04

## O=C(Nc1cc(C(=O)Nc2ccc(S(=O)(=O)O)cc2S(=O)(=O)O)cc(C(=O)Nc2ccc(S(=O)(=O)O)cc2S(=O)(=O)O)c1)Nc1cc(C(=O)Nc2ccc(S(=O)(=O)O)cc2S(=O)(=O)O)cc(C(=O)Nc2ccc(S(=O)(=O)O)cc2S(=O)(=O)O)c1 [NF449, 4,4′,4″,4‴-(carbonylbis(imino-5,1,3-benzenetriylbis(carbonylimino)))tetrakisbenzene-1,3-disulfonic acid]
rP2X4 receptor [2]
  IC50: > 1000 nM
X1-BX4 [4]
  pIC50: 9.28 ± 0.05
rP2X4 receptor [5]
  remaining activity at 1 µM: 104 ± 5.3%

## Cc1nc(N=Nc2ccc(S(=O)(=O)O)cc2S(=O)(=O)O)c(COP(=O)(O)O)c(C=O)c1O [PPADS, pyridoxal-phosphate-6-azophenyl-2,4-disulfonate]
X1-CX4; [7]
  PPADS / pIC50: 5.47 ± 0.12
X1-BX4 [1]; [7]
  PPADS / pIC50: 5.24 ± 0.12
rP2X4 receptor [2]
  IC50: > 100000 nM
hP2X1 receptor; read-out: PPADS / pIC50 (converted)
  IC50: 1580 nM
X1-AX4; [7]
  PPADS / pIC50: 6.18 ± 0.02
X1-DX4; [7]
  PPADS / pIC50: 6.95 ± 0.07

## Cc1ccc(C(=O)Nc2ccc(S(=O)(=O)O)c3cc(S(=O)(=O)O)cc(S(=O)(=O)O)c23)cc1NC(=O)c1cccc(NC(=O)Nc2cccc(C(=O)Nc3cc(C(=O)Nc4ccc(S(=O)(=O)O)c5cc(S(=O)(=O)O)cc(S(=O)(=O)O)c45)ccc3C)c2)c1 [Suramin]
rP2X4 receptor [2]
  IC50: > 100000 nM
